# Laboratory results from PubChem BioAssay AID179 (DTP/NCI, 2004).
# The source made the active and inactive calls.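 How the source made its calls: active means compounds giving half or more protection of infected cells from virus-caused growth loss, again on retest; inactive means the rest.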
# Tested on: CEM cells HIV-1 protection, formazan growth assay
# Test: NCI AIDS Antiviral Assay
# Conditions: for IC50: measured here: growth of uninfected CEM cells
# Method in brief: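 Five concentrations of each compound were applied to infected and uninfected human CEM cells. Protection from HIV-1 was judged from growth measured with a soluble formazan assay.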
SMILES,outcome,EC50 [µM],IC50 [µM]
N#CC1Sc2ccccc2-n2cccc21 (centres undefined),inactive,,
CCOP(=O)(OCC)/C(C#N)=C/c1ccc([N+](=O)[O-])cc1,,> 813,575
Cc1cc(NS(=O)(=O)c2ccc(N=[N+]([O-])c3ccc(S(=O)(=O)Nc4cc(C)on4)cc3)cc2)no1,,> 200,> 200
Cc1ccc([N+](=O)[O-])cc1P(=O)(O)c1cc([N+](=O)[O-])ccc1C,,> 200,> 200
CC1(C)CN(C(=O)OCc2ccccc2)[C@@H]2N1C(=O)[C@@]2(C)OCCCO[C@]1(C)C(=O)N2[C@H]1N(C(=O)OCc1ccccc1)CC2(C)C,,> 200,> 200
Cc1nc2ccccc2n1COC(Cn1ccnc1)c1ccc(Cl)cc1Cl (centres undefined),,> 200,135
COC(=O)[C@H]1C2CC[C@@H]3C45C[C@@H](c6ccoc6)O[C@@H]4O[C@@H](O2)C31CCC5C (some centres undefined),,> 95.5,> 95.5
Cc1cnc2c(c1)C(=O)N(c1ccc(Oc3ccccc3)cc1)S2(=O)=O,,> 200,> 200
COc1ccc(NC(=O)CC(=O)Nc2ccc(OC)cc2)cc1,,170,> 200
CC1(C)CCc2cc3c(cc2O1)OCCC3=O,inactive,,
O=C(N/C(=C\c1cccc([N+](=O)[O-])c1)c1nc2ccc([N+](=O)[O-])cc2[nH]1)c1ccccc1,inactive,,
O=[N+]([O-])c1cccc(C2c3ccccc3Oc3ccccc32)c1,,> 200,19.1
Nc1nc(Cl)cc(NCC2(CO)CCCC2)n1,,> 200,66.1
COc1cc(NC=O)c(OC)cc1Cl,inactive,,
CC1(c2ccc3cccc(F)c3c2)OC(=O)c2ccccc21 (centres undefined),inactive,,
Nc1nc(Cl)c2ncn(C3OC(CO)CC3F)c2n1 (centres undefined),,> 49,> 49
CCCC[N+](CCCC)=c1cc(-c2ccc(Cl)cc2)ss1,,> 20,0.708
O=C1OCC2=Nc3cccc4cccc(c34)N12,,> 0.676,0.331

SMILES,outcome,EC50 [µM],IC50 [µM]
Cc1ccc(NCCNCCO)c2c(=O)c3ccccc3sc12,inactive,,
CCC(CCCCC1CC[C@H]2CC(=O)C[C@@H]12)OC (some centres undefined),,> 200,107
CC(=O)c1sc2c(c1OC(=O)c1ccco1)c(=O)n(-c1ccccc1)c(=S)n2-c1ccccc1,,> 200,9.77
CN/N=C(/CC(=O)c1sc(NNC(C)=O)nc1C)C(=O)Nc1ccc(OC)cc1OC,,> 79.4,> 79.4
CC(=O)OC12c3ccccc3C(c3ccccc31)C1C(=O)N(Nc3ccccc3)C(=O)C12 (centres undefined),,> 200,> 200
Nc1ccc(/C=C\c2ccc(N)cc2S(=O)(=O)O)c(S(=O)(=O)O)c1,,> 200,> 200
CN(NC(=O)CCCl)C1=NCCCCN1,,> 200,> 200
CC(CCNC(=O)c1ccccc1)(CCNC(=O)c1ccccc1)[N+](=O)[O-],,> 200,> 200
COc1ccc(C2(Br)C(=O)NN=C2C)cc1 (centres undefined),,> 200,10.7
COc1cc(COC(=O)N(CC(=O)O)c2ccccc2)c([N+](=O)[O-])cc1OC,,> 646,295
O=c1[nH]c2ccccc2c(O)c1Cc1ccccc1,,> 200,> 200
COc1c2occc2c([N+](=O)[O-])c2ccc(=O)oc12,,> 30.9,26.3
CCCCCC1OC1(c1cc(Br)c(OC)c(C(=O)OC)c1)c1cc(Br)c(OC)c(C(=O)OC)c1 (centres undefined),,> 200,67.6
CC(SC(C)C(=O)N/N=C/c1ccc(B(O)O)cc1)C(=O)N/N=C\c1ccc(B(O)O)cc1 (centres undefined),,> 200,> 200
COc1cc(C(=O)O)c(C(=O)c2ccc([N+](=O)[O-])cc2)cc1OC,,> 200,> 200
CN1C(=O)CC(=O)N1/C(=C/c1ccccc1)c1ccccc1,,> 200,155
Cc1n[nH]c(=O)n1N1C(=O)CCCC1=O,,> 200,> 200
